Results published in patent publication US20110129868A1, “CELL CAPABLE OF REPLICATING NOVEL HCV REPLICON, CELL CAPABLE OF REPLICATING FULL-LENGTH HCV RNA, AND USE OF THOSE CELLS” (priority 2008, published 2011).
Where two headings read alike, the source gives them in different places.

What was measured:
[1] = system: ORL11 cells; experiment: cell count by trypan blue staining, ORL11 cells; assay type: cell-based, human
[2] = system: ORL8, ORL11, and OR6 cells; experiment: cell count / cytotoxicity check, cell lines not itemised; conditions: at a concentration of 12.5 μM
Description: In order to ascertain that the decrease in luciferase activity in response to the addition of ribavirin was not due to the cell growth inhibition or cytotoxicity by ribavirin, the cells were cultured under the same conditions used for the luciferase assay, and counted using a trypan blue staining technique. The effect of adding ribavirin in the concentration corresponding to the EC50 value of each cell line was examined.
FLV (Calbiochem, 344095) was used.

[3] = in vivo; cited from earlier work
[4] = system: OR6 cells; experiment: cell count by trypan blue staining, OR6 cells; assay type: cell-based, human; conditions: drug at the concentration corresponding to the EC50 value
[5] = system: full-length HCV RNA replication in OR6 cells; experiment: microbe, parasite or virus in culture; assay type: cell-based, HCV-O strain (genotype 1b); conditions: OR6 cells; for EC50: luciferase activity after 72 hours
Excerpt: (§1) Renilla luciferase was quantified by collecting cells using a Renilla Luciferase Assay System (Promega) according to the manufacturer's experiment protocol.
An OR6-cell assay system was used as a control.

[6] = system: full-length HCV RNA replication in ORL11 cells; experiment: microbe, parasite or virus in culture; assay type: cell-based, HCV-O strain (genotype 1b); conditions: for measured luciferase activity value: 24 hours after the addition, 750,000 without IFN-α
Description: as §1
(§2) Luciferase activity of each cell line was then measured at hour 24, 48, and 72. […] SD values were calculated based on the results from three samples at each point. […]

[7] = system: full-length HCV RNA replication in ORL8 cells; experiment: microbe, parasite or virus in culture; assay type: cell-based, HCV-O strain (genotype 1b); conditions: ORL8 cells; for measured luciferase activity value: 24 hours after the addition, 380,000 without IFN-α
Description: as §1, §2

[8] = system: full-length HCV RNA replication in OR6 cells; conditions: OR6 cell assay system (Naka et al., BBRC 2005); cited from earlier work
[9] = system: ORL8 cells; experiment: cell count by trypan blue staining, ORL8 cells; assay type: cell-based, human; conditions: drug at the concentration corresponding to the EC50 value
[10] = system: HCV replicon RNA replication in sORL8 (pool) cells; experiment: luciferase reporter assay using sORL8 (pool) cells; assay type: cell-based, HCV-O strain (genotype 1b); conditions: luciferase activity after 72 hours
Excerpt: as §1
(§3) In the ORN/3-5B/QR, KE, SR (replicon RNA)-introduced OL8c and OL11c cells, G418-resistant cells filled the dish in 2 weeks (FIG. 9). Because the whole cells were estimated to be several tens of thousands of colonies, the G418-resistant cells were mixed without cloning, and used as reporter gene-carrying replicon-replicating cells (sORL8 (pool) cells and sORL11 (pool) cells). These cells had luciferase activities measuring 8×10^5 and 15×10^5, respectively, in terms of actual measurement values per 2×10^5 cells (Promega assay kit). […] Note that the doubling time of the cells using a common subculture medium (in the presence of G418) was calculated as 53 hours and 40 hours. It was also confirmed that the replicon RNA in these cells were not incorporated into the host DNA (the results are not presented).
(§4) The same experiments were conducted using sORL8 (pool) cells and sORL11 (pool) cells.

[11] = system: full-length HCV RNA replication in 1B-4RL8 cells; experiment: luciferase activity and HCV RNA level in 1B-4RL8 cells; assay type: cell-based, HCV strain 1B-4 (genotype 1b); conditions: 24 hours after the addition of IFN-α (1, 10, 100 IU/ml)
Description: (§5) Total RNA was extracted from the HCV RNA replicating cells using an RNeasy Mini Kit (Qiagen) according to the manufacturer's experiment protocol. First, using 2 μg of RNA as a template, reverse transcription (RT) reaction was performed with SuperScript™ II reverse transcriptase (Invitrogen) and the primer 319R below according to the manufacturer's experiment protocol. HCV RNA was quantified by real-time LightCycler PCR, using the resulting cDNA as a template. Real-Time LightCycler PCR was performed based on the method previously reported by the present inventors (reference: Acta Med. Okayama 56, 107-110, 2002), using the primers 104 and 197R below.
as §1
(§6) The 1B-4RL8 and KAH5RL8 cells were examined with regard to a possible correlation between luciferase activity and HCV RNA level (FIG. 49). The graphs on the left represent the measured luciferase activities 24 hours after the addition of IFN-α (0, 1, 10, 100 IU/ml) to the 1B-4RL8 and KAH5RL8 cells (each cultured for 2 days after inoculating 2×10^4 cells in a 24-well plate). Measurements were made in at least 3 wells at each point. A one hundred percent measurement value of 300,000 was obtained for the 1B-4RL8 and KAH5RL8 cells. […]

[12] = system: HCV replicon RNA replication in sORL11 (pool) cells; experiment: luciferase reporter assay using sORL11 (pool) cells; assay type: cell-based, HCV-O strain (genotype 1b); conditions: luciferase activity after 72 hours
Excerpt: as §1, §3, §4

[13] = system: full-length HCV RNA replication in OL8, OL11, and OL14 cells; conditions: IFN-α 50, 100, or 200 IU/ml every 4 days; 25 days; as in O cells
Excerpt: The colonies that appeared as G418 resistant cells were stained with CBB solution (FIG. 7). […] No G418-resistant cell colonies were obtained in OL14 cells.

[14] = system: full-length HCV RNA replication in KAH5RL8 cells; experiment: luciferase activity and HCV RNA level in KAH5RL8 cells; assay type: cell-based, HCV strain KAH5 (genotype 1b); conditions: 24 hours after the addition of IFN-α (1, 10, 100 IU/ml)
Description: as §5, §1, §6

[15] = IFN-α at 0.25 IU/ml, ribavirin at 12.5 W
[16] = drug concentrations based on the EC50 values
[17] = 24 hours after the addition of IFN-α (1, 10, 100 IU/ml)

Compound: NC(=O)c1ncn([C@@H]2O[C@H](CO)[C@@H](O)[C@H]2O)n1 [Ribavirin]
- cell count over the control cells ([1]; ORL11 cells, drug at the concentration corresponding to the EC50 value, trypan blue): ≥ 98%
- cytotoxicity [2]: not recognized
- blood concentrations [3]: 10 to 14 µM
- cell count over the control cells [4]: ≥ 98%
- EC50 ([5]; Hepatitis C virus, read-out: EC50): 119 µM
- luciferase activity after treatment (single agent or combined use) ([5]; IFN-α at 0.25 IU/ml, ribavirin): 97%
- EC50 ([6]; Hepatitis C virus, 72 h, luciferase activity after 72 hours, read-out: EC50): 15.9 µM
- luciferase activity after treatment (single agent or combined use) [6, 15]: 49%
- EC50 ([7]; Hepatitis C virus, luciferase activity after 72 hours, read-out: EC50): 10.1 µM
- luciferase activity after treatment (single agent or combined use) ([7]; IFN-α at 0.25 IU/ml, ribavirin): 35%
- EC50 [8]: 76 µM
- cell count over the control cells [9]: ≥ 98%

Compound: IFN-α
- cell count over the control cells [1]: ≥ 95%
- EC50 [10]: 0.14 IU/ml
- cell count over the control cells [4]: ≥ 95%
- luciferase activity after treatment (single agent or combined use) ([5]; IFN-α at 0.25 IU/ml, ribavirin): 75%
- luciferase activity after treatment (single agent or combined use) [5, 16]: 67%
- EC50 [5]: 0.40 IU/ml
- luciferase activity and HCV RNA level [11]: decreased in a manner that depended on IFN-α concentration
- EC50 [12]: 0.25 IU/ml
- measured luciferase activity value ([6]; 1 IU/ml IFN-α): 300,000
- measured luciferase activity value ([6]; 10 IU/ml IFN-α): 76,000
- measured luciferase activity value ([6]; 100 IU/ml IFN-α): 27,000
- luciferase activity and HCV RNA level [6, 17]: decreased in a manner that depended on IFN-α concentration
- luciferase activity after treatment (single agent or combined use) [6, 15]: 48%
- luciferase activity after treatment (single agent or combined use) [6, 16]: 41%
- luciferase activity and HCV RNA level [7, 17]: decreased in a manner that depended on IFN-α concentration
- luciferase activity after treatment (single agent or combined use) ([7]; IFN-α at 0.25 IU/ml, ribavirin): 26%
- measured luciferase activity value ([7]; addition of 1 IU/ml IFN-α): 113,000
- measured luciferase activity value ([7]; addition of 10 IU/ml IFN-α): 36,000
- measured luciferase activity value ([7]; addition of 100 IU/ml IFN-α): 19,000
- luciferase activity after treatment (single agent or combined use) [7, 16]: 50%
- sensitivity of full-length HCV RNA replication (G418-resistant colonies) [13]: highly sensitive
- luciferase activity and HCV RNA level [14]: decreased in a manner that depended on IFN-α concentration
- cell count over the control cells [9]: ≥ 95%
